Test results taken from PubChem BioAssay (NCI).
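The compound was tested at five concentrations on cells cultured in 96-well plates, with a 48-hour exposure period. TGI: concentration producing complete growth inhibition.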

Columns and labels:
Assay in all cases: NCI tumour cell line growth inhibition, 48 h
SW-620 colon = tested on: SW-620 colon
ACHN renal = tested on: ACHN renal
MCF7 breast = tested on: MCF7 breast
TK-10 renal = tested on: TK-10 renal
SF-295 CNS = tested on: SF-295 CNS
KM12 colon = tested on: KM12 colon
UO-31 renal = tested on: UO-31 renal
SK-MEL-28 melanoma = tested on: SK-MEL-28 melanoma
RXF 393 renal = tested on: RXF 393 renal
NCI-H522 lung = tested on: NCI-H522 lung
SK-MEL-2 melanoma = tested on: SK-MEL-2 melanoma
HS 578T breast = tested on: HS 578T breast
MDA-MB-435 = tested on: MDA-MB-435
HCT-116 colon = tested on: HCT-116 colon
IGROV1 ovarian = tested on: IGROV1 ovarian
786-0 renal = tested on: 786-0 renal
K-562 leukemia = tested on: K-562 leukemia
NCI/ADR-RES ovarian = tested on: NCI/ADR-RES ovarian
NCI-H23 lung = tested on: NCI-H23 lung
LOX IMVI melanoma = tested on: LOX IMVI melanoma
OVCAR-5 ovarian = tested on: OVCAR-5 ovarian
DU-145 prostate = tested on: DU-145 prostate
U251 CNS = tested on: U251 CNS
EKVX NSCLC = tested on: EKVX NSCLC
UACC-62 melanoma = tested on: UACC-62 melanoma
RPMI-8226 leukemia = tested on: RPMI-8226 leukemia
NCI-H226 lung = tested on: NCI-H226 lung
OVCAR-8 ovarian = tested on: OVCAR-8 ovarian
PC-3 prostate = tested on: PC-3 prostate
SK-OV-3 ovarian = tested on: SK-OV-3 ovarian
CAKI-1 renal = tested on: CAKI-1 renal
SK-MEL-5 melanoma = tested on: SK-MEL-5 melanoma
HL-60(TB) leukemia = tested on: HL-60(TB) leukemia
M14 melanoma = tested on: M14 melanoma
A549 NSCLC = tested on: A549 NSCLC
UACC-257 melanoma = tested on: UACC-257 melanoma
SF-268 CNS = tested on: SF-268 CNS
SN12C renal = tested on: SN12C renal
BT-549 breast = tested on: BT-549 breast
MALME-3M melanoma = tested on: MALME-3M melanoma
T-47D breast = tested on: T-47D breast
HCC-2998 colon = tested on: HCC-2998 colon
HCT-15 colon = tested on: HCT-15 colon
SR leukemia = tested on: SR leukemia
OVCAR-4 ovarian = tested on: OVCAR-4 ovarian
MOLT-4 leukemia = tested on: MOLT-4 leukemia
SNB-19 CNS = tested on: SNB-19 CNS
OVCAR-3 ovarian = tested on: OVCAR-3 ovarian
HT29 colon = tested on: HT29 colon
SNB-75 CNS = tested on: SNB-75 CNS
MDA-N = tested on: MDA-N
HOP-62 NSCLC = tested on: HOP-62 NSCLC
SF-539 CNS = tested on: SF-539 CNS
COLO 205 colon = tested on: COLO 205 colon
CCRF-CEM leukemia = tested on: CCRF-CEM leukemia
A498 renal = tested on: A498 renal
MDA-MB-231 breast = tested on: MDA-MB-231 breast
NCI-H460 lung = tested on: NCI-H460 lung
HOP-92 NSCLC = tested on: HOP-92 NSCLC

`CN/N=C(/C=C/c1ccccc1)C(C)C` showed a TGI (SW-620 colon) of over 100 µM, a TGI (ACHN renal) of over 100 µM and a TGI (MCF7 breast) of over 100 µM. For the same compound, the TGI (TK-10 renal) was over 100 µM, the TGI (SF-295 CNS) was over 100 µM and the TGI (KM12 colon) was over 100 µM. For the same compound, the TGI (UO-31 renal) was over 100 µM, the TGI (SK-MEL-28 melanoma) was over 100 µM and the TGI (RXF 393 renal) was over 100 µM. The TGI (NCI-H522 lung) was over 100 µM, the TGI (SK-MEL-2 melanoma) was over 100 µM and the TGI (HS 578T breast) was over 100 µM. For the same compound, the TGI (MDA-MB-435) was over 100 µM, the TGI (HCT-116 colon) was over 100 µM and the TGI (IGROV1 ovarian) was over 100 µM. The TGI (786-0 renal) was over 100 µM, the TGI (K-562 leukemia) was over 100 µM and the TGI (NCI/ADR-RES ovarian) was over 100 µM. For the same compound, the TGI (NCI-H23 lung) was over 100 µM, the TGI (LOX IMVI melanoma) was over 100 µM and the TGI (OVCAR-5 ovarian) was over 100 µM. It also gave a TGI (DU-145 prostate) of over 100 µM, a TGI (U251 CNS) of over 100 µM and a TGI (EKVX NSCLC) of over 100 µM. For the same compound, the TGI (UACC-62 melanoma) was over 100 µM, the TGI (RPMI-8226 leukemia) was over 100 µM and the TGI (NCI-H226 lung) was over 100 µM. For the same compound, the TGI (OVCAR-8 ovarian) was over 100 µM, the TGI (PC-3 prostate) was over 100 µM and the TGI (SK-OV-3 ovarian) was over 100 µM. For the same compound, the TGI (CAKI-1 renal) was over 100 µM, the TGI (SK-MEL-5 melanoma) was over 100 µM and the TGI (HL-60(TB) leukemia) was over 100 µM. The TGI (M14 melanoma) was over 100 µM, the TGI (A549 NSCLC) was over 100 µM and the TGI (UACC-257 melanoma) was over 100 µM. It also gave a TGI (SF-268 CNS) of over 100 µM, a TGI (SN12C renal) of over 100 µM and a TGI (BT-549 breast) of over 100 µM. The TGI (MALME-3M melanoma) was over 100 µM, the TGI (T-47D breast) was over 100 µM and the TGI (HCC-2998 colon) was over 100 µM. For the same compound, the TGI (HCT-15 colon) was over 100 µM, the TGI (SR leukemia) was over 100 µM and the TGI (OVCAR-4 ovarian) was over 100 µM. It also gave a TGI (MOLT-4 leukemia) of over 100 µM, a TGI (SNB-19 CNS) of over 100 µM and a TGI (OVCAR-3 ovarian) of over 100 µM. The TGI (HT29 colon) was over 100 µM, the TGI (SNB-75 CNS) was over 100 µM and the TGI (MDA-N) was over 100 µM. For the same compound, the TGI (HOP-62 NSCLC) was over 100 µM, the TGI (SF-539 CNS) was over 100 µM and the TGI (COLO 205 colon) was over 100 µM. It also gave a TGI (CCRF-CEM leukemia) of over 100 µM.

`Cc1ccc(I)cc1N=C=S` gave a TGI (SW-620 colon) of over 100 µM, a TGI (A498 renal) of 48.8 µM and a TGI (ACHN renal) of 54.8 µM. For the same compound, the TGI (MCF7 breast) was 54.4 µM, the TGI (TK-10 renal) was 88.7 µM and the TGI (SF-295 CNS) was 62.8 µM. For the same compound, the TGI (KM12 colon) was 36.9 µM, the TGI (UO-31 renal) was 33 µM and the TGI (SK-MEL-28 melanoma) was 39.2 µM. For the same compound, the TGI (RXF 393 renal) was 40.6 µM, the TGI (NCI-H522 lung) was 36.6 µM and the TGI (SK-MEL-2 melanoma) was 38.6 µM. For the same compound, the TGI (HS 578T breast) was 91.8 µM, the TGI (MDA-MB-435) was 73.7 µM and the TGI (HCT-116 colon) was 91.9 µM. For the same compound, the TGI (IGROV1 ovarian) was over 100 µM, the TGI (786-0 renal) was 60 µM and the TGI (K-562 leukemia) was 54.7 µM. For the same compound, the TGI (NCI/ADR-RES ovarian) was 63.3 µM, the TGI (NCI-H23 lung) was 42.1 µM and the TGI (LOX IMVI melanoma) was 53.8 µM. The TGI (OVCAR-5 ovarian) was 50.4 µM, the TGI (MDA-MB-231 breast) was 71.1 µM and the TGI (NCI-H460 lung) was 52.1 µM. It also gave a TGI (DU-145 prostate) of 96.1 µM, a TGI (U251 CNS) of 48.6 µM and a TGI (EKVX NSCLC) of 63.4 µM. For the same compound, the TGI (UACC-62 melanoma) was 31.6 µM, the TGI (RPMI-8226 leukemia) was 54.1 µM and the TGI (NCI-H226 lung) was 39.9 µM. For the same compound, the TGI (OVCAR-8 ovarian) was over 100 µM, the TGI (PC-3 prostate) was 51.4 µM and the TGI (SK-OV-3 ovarian) was over 100 µM. It also gave a TGI (CAKI-1 renal) of 71.2 µM, a TGI (SK-MEL-5 melanoma) of 30.1 µM and a TGI (HL-60(TB) leukemia) of 44.3 µM. For the same compound, the TGI (HOP-92 NSCLC) was over 100 µM, the TGI (M14 melanoma) was 38.7 µM and the TGI (A549 NSCLC) was 82.3 µM. It also gave a TGI (UACC-257 melanoma) of 63.9 µM, a TGI (SF-268 CNS) of 75.8 µM and a TGI (SN12C renal) of 49.3 µM. The TGI (BT-549 breast) was 30.5 µM, the TGI (MALME-3M melanoma) was 61.5 µM and the TGI (T-47D breast) was 42.5 µM. The TGI (HCT-15 colon) was 34.8 µM, the TGI (OVCAR-4 ovarian) was over 100 µM and the TGI (MOLT-4 leukemia) was 43.8 µM. It also gave a TGI (SNB-19 CNS) of 70.1 µM, a TGI (OVCAR-3 ovarian) of over 100 µM and a TGI (HT29 colon) of 53 µM. It also gave a TGI (SNB-75 CNS) of 52.7 µM, a TGI (MDA-N) of 86.5 µM and a TGI (HOP-62 NSCLC) of 59.8 µM. It also gave a TGI (SF-539 CNS) of 35.4 µM, a TGI (COLO 205 colon) of 34 µM and a TGI (CCRF-CEM leukemia) of 57.2 µM.
